Reference: PubChem BioAssay AID248 (DTP/NCI, 2004)
“And” between values parts separate entries of the source, which are not always exact repeats. Equal values may be shown once. Inconclusive results and toxic doses are left out. Cut-off read from the data, not from the text of the source: active = T/C of 150% or more; inactive = T/C below 125%.

Tested on: L1210 leukemia ip in BDF1 mice, survival T/C
Experiment: NCI In Vivo Anticancer Drug Screen. Data for tumor model L1210 Leukemia (intraperitoneal) in B6D2F1 (BDF1) mice
Conditions: higher = longer survival
Procedure, shortened: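 Each compound was tested against a transplantable tumor grown in mice. The endpoint was survival, with treated animals benchmarked against vehicle controls as a simple ratio.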

Measured: T/C

Cc1c2ccncc2c(C)c2c1[nH]c1ccccc12
inactive: endpoint: mean survival time, dose: 0.31 mg/kg/injection, schedule: Q#A X018 (ip), vehicle: other 102 % of control | endpoint: mean survival time, dose: 0.5 mg/kg/injection, schedule: Q01DX005 (ip), vehicle: other 105 % of control | endpoint: mean survival time, dose: 0.59 mg/kg/injection, schedule: Q03HX008 (ip), vehicle: other 94 % of control | endpoint: mean survival time, dose: 1.0 mg/kg/injection, schedule: Q01DX009 (ip), vehicle: other 111 % of control | endpoint: mean survival time, dose: 1.0 mg/kg/injection, schedule: Q01DX009 (ip), vehicle: water 107 % of control and 110 % of control | endpoint: mean survival time, dose: 1.0 mg/kg/injection, schedule: Q03HX024 (ip), vehicle: acid diluted with saline 110 % of control | endpoint: mean survival time, dose: 1.18 mg/kg/injection, schedule: Q03HX008 (ip), vehicle: other 98 % of control | endpoint: mean survival time, dose: 1.25 mg/kg/injection, schedule: Q#A X018 (ip), vehicle: other 110 % of control | endpoint: mean survival time, dose: 2.0 mg/kg/injection, schedule: Q01DX009 (ip), vehicle: other 111 % of control | endpoint: mean survival time, dose: 2.0 mg/kg/injection, schedule: Q03HX016 (ip), vehicle: clinical formulation 105 % of control | endpoint: mean survival time, dose: 2.0 mg/kg/injection, schedule: Q03HX016 (oral), vehicle: clinical formulation 95 % of control | endpoint: mean survival time, dose: 3.12 mg/kg/injection, schedule: Q01DX005 (oral), vehicle: saline 95 % of control | endpoint: mean survival time, dose: 3.12 mg/kg/injection, schedule: Q01DX009 (ip), vehicle: clinical formulation 102 % of control | endpoint: mean survival time, dose: 3.12 mg/kg/injection, schedule: Q04DX003 (ip), vehicle: clinical formulation 108 % of control | endpoint: mean survival time, dose: 3.12 mg/kg/injection, schedule: Q04DX009 (ip), vehicle: citric acid 101 % of control | endpoint: mean survival time, dose: 4.0 mg/kg/injection, schedule: Q01DX009 (oral), vehicle: clinical formulation 102 % of control | endpoint: mean survival time, dose: 4.0 mg/kg/injection, schedule: Q03HX008 (oral), vehicle: clinical formulation 109 % of control | endpoint: mean survival time, dose: 4.0 mg/kg/injection, schedule: Q03HX016 (oral), vehicle: clinical formulation 105 % of control | endpoint: mean survival time, dose: 4.0 mg/kg/injection, schedule: Q03HX024 (oral), vehicle: clinical formulation 110 % of control | endpoint: mean survival time, dose: 5.0 mg/kg/injection, schedule: Q01DX015 (oral), vehicle: carboxymethylcellulose (CMC) 105 % of control | endpoint: mean survival time, dose: 6.2 mg/kg/injection, schedule: Q01DX001 (ip), vehicle: saline 108 % of control | endpoint: mean survival time, dose: 6.2 mg/kg/injection, schedule: Q01DX Z (oral), vehicle: saline 110 % of control | endpoint: mean survival time, dose: 6.25 mg/kg/injection, schedule: Q01DX005 (oral), vehicle: saline 104 % of control | endpoint: mean survival time, dose: 6.25 mg/kg/injection, schedule: Q01DX005 (oral), vehicle: water 106 % of control | endpoint: mean survival time, dose: 6.25 mg/kg/injection, schedule: Q04DX003 (ip), vehicle: citric acid 107 % of control | endpoint: mean survival time, dose: 6.25 mg/kg/injection, schedule: Q04DX003 (ip), vehicle: clinical formulation 109 % of control and 110 % of control | endpoint: mean survival time, dose: 6.25 mg/kg/injection, schedule: Q04DX009 (ip), vehicle: citric acid 110 % of control | endpoint: mean survival time, dose: 8.0 mg/kg/injection, schedule: Q04DX003 (ip), vehicle: Klucel (hydroxypropylcellulose) (HPC) 110 % of control | endpoint: mean survival time, dose: 8.0 mg/kg/injection, schedule: Q04DX003 (ip), vehicle: acid diluted with saline 109 % of control | endpoint: mean survival time, dose: 9.37 mg/kg/injection, schedule: Q01DX001 (ip), vehicle: other 103 % of control | endpoint: mean survival time, dose: 9.37 mg/kg/injection, schedule: Q01DX001 (sc), vehicle: other 103 % of control and 104 % of control | endpoint: mean survival time, dose: 9.38 mg/kg/injection, schedule: Q01DX001 (ip), vehicle: other 100 % of control | endpoint: mean survival time, dose: 9.38 mg/kg/injection, schedule: Q04DX003 (ip), vehicle: clinical formulation 110 % of control | endpoint: mean survival time, dose: 10.0 mg/kg/injection, schedule: Q01DX015 (oral), vehicle: carboxymethylcellulose (CMC) 110 % of control | endpoint: mean survival time, dose: 12.5 mg/kg/injection, schedule: Q01DX005 (oral), vehicle: water 109 % of control | endpoint: mean survival time, dose: 12.5 mg/kg/injection, schedule: Q04DX003 (oral), vehicle: saline 106 % of control | endpoint: mean survival time, dose: 12.5 mg/kg/injection, schedule: Q04DX003 (oral), vehicle: water 104 % of control | endpoint: mean survival time, dose: 16.0 mg/kg/injection, schedule: Q03HX008 (ip), vehicle: clinical formulation 94 % of control | endpoint: mean survival time, dose: 16.0 mg/kg/injection, schedule: Q08DX002 (oral), vehicle: clinical formulation 100 % of control | endpoint: mean survival time, dose: 18.75 mg/kg/injection, schedule: Q01DX001 (sc), vehicle: other 107 % of control | endpoint: mean survival time, dose: 25.0 mg/kg/injection, schedule: Q01DX001 (oral), vehicle: saline with Tween-80 103 % of control | endpoint: mean survival time, dose: 25.0 mg/kg/injection, schedule: Q01DX001 (oral), vehicle: water 104 % of control | endpoint: mean survival time, dose: 25.0 mg/kg/injection, schedule: Q01DX009 (ip), vehicle: citric acid 108 % of control | endpoint: mean survival time, dose: 25.0 mg/kg/injection, schedule: Q01DX009 (ip), vehicle: clinical formulation 101 % of control | endpoint: mean survival time, dose: 25.0 mg/kg/injection, schedule: Q04DX003 (oral), vehicle: saline 104 % of control | endpoint: mean survival time, dose: 32.0 mg/kg/injection, schedule: Q01DX001 (oral), vehicle: clinical formulation 106 % of control | endpoint: mean survival time, dose: 32.0 mg/kg/injection, schedule: Q03HX008 (oral), vehicle: clinical formulation 110 % of control | endpoint: mean survival time, dose: 37.5 mg/kg/injection, schedule: Q01DX001 (oral), vehicle: other 110 % of control | endpoint: mean survival time, dose: 37.5 mg/kg/injection, schedule: Q01DX001 (sc), vehicle: saline 101 % of control and 109 % of control | endpoint: mean survival time, dose: 40.0 mg/kg/injection, schedule: Q#A X018 (ip), vehicle: other 105 % of control | endpoint: mean survival time, dose: 50.0 mg/kg/injection, schedule: Q01DX001 (oral), vehicle: water 104 % of control | endpoint: mean survival time, dose: 50.0 mg/kg/injection, schedule: Q01DX009 (ip), vehicle: saline with Tween-80 95 % of control | endpoint: mean survival time, dose: 50.0 mg/kg/injection, schedule: Q01DX009 (oral), vehicle: saline 110 % of control | endpoint: mean survival time, dose: 64.0 mg/kg/injection, schedule: Q04DX003 (ip), vehicle: Klucel (hydroxypropylcellulose) (HPC) 94 % of control and 95 % of control | endpoint: mean survival time, dose: 75.0 mg/kg/injection, schedule: Q01DX001 (oral), vehicle: saline 108 % of control | endpoint: mean survival time, dose: 75.0 mg/kg/injection, schedule: Q01DX001 (sc), vehicle: saline 103 % of control and 105 % of control | endpoint: mean survival time, dose: 75.0 mg/kg/injection, schedule: Q01DX009 (ip), vehicle: saline with Tween-80 98 % of control | endpoint: mean survival time, dose: 75.0 mg/kg/injection, schedule: Q04DX003 (ip), vehicle: clinical formulation 94 % of control | endpoint: mean survival time, dose: 75.0 mg/kg/injection, schedule: Q04DX003 (ip), vehicle: lactic acid 92 % of control | endpoint: mean survival time, dose: 80.0 mg/kg/injection, schedule: Q01DX009 (ip), vehicle: other 104 % of control | endpoint: mean survival time, dose: 80.0 mg/kg/injection, schedule: Q#A X018 (ip), vehicle: other 104 % of control | endpoint: mean survival time, dose: 80.0 mg/kg/injection, schedule: Q#A X018 (oral), vehicle: other 96 % of control | endpoint: mean survival time, dose: 100.0 mg/kg/injection, schedule: Q01DX009 (ip), vehicle: saline with Tween-80 93 % of control | endpoint: mean survival time, dose: 100.0 mg/kg/injection, schedule: Q04DX003 (oral), vehicle: water 110 % of control | endpoint: mean survival time, dose: 128.0 mg/kg/injection, schedule: Q01DX005 (ip), vehicle: saline 100 % of control | endpoint: mean survival time, dose: 128.0 mg/kg/injection, schedule: Q01DX009 (ip), vehicle: water 103 % of control and 108 % of control | endpoint: mean survival time, dose: 128.0 mg/kg/injection, schedule: Q08DX002 (ip), vehicle: clinical formulation 101 % of control | endpoint: mean survival time, dose: 150.0 mg/kg/injection, schedule: Q01DX001 (oral), vehicle: saline with Tween-80 108 % of control | endpoint: mean survival time, dose: 150.0 mg/kg/injection, schedule: Q01DX001 (sc), vehicle: saline 103 % of control and 110 % of control | endpoint: mean survival time, dose: 160.0 mg/kg/injection, schedule: Q01DX015 (oral), vehicle: carboxymethylcellulose (CMC) 104 % of control | endpoint: mean survival time, dose: 170.0 mg/kg/injection, schedule: Q01DX Z (oral), vehicle: saline 105 % of control | endpoint: mean survival time, dose: 200.0 mg/kg/injection, schedule: Q04DX003 (ip), vehicle: water 104 % of control | endpoint: mean survival time, dose: 256.0 mg/kg/injection, schedule: Q01DX005 (ip), vehicle: other 110 % of control | endpoint: mean survival time, dose: 256.0 mg/kg/injection, schedule: Q01DX009 (ip), vehicle: other 104 % of control | endpoint: mean survival time, dose: 300.0 mg/kg/injection, schedule: Q01DX001 (sc), vehicle: saline 110 % of control | endpoint: mean survival time, dose: 300.0 mg/kg/injection, schedule: Q04DX003 (ip), vehicle: saline with Tween-80 103 % of control | endpoint: mean survival time, dose: 300.0 mg/kg/injection, schedule: Q04DX003 (ip), vehicle: saline 100 % of control | endpoint: mean survival time, dose: 400.0 mg/kg/injection, schedule: Q04DX002 (ip), vehicle: Klucel (hydroxypropylcellulose) (HPC) 97 % of control | endpoint: mean survival time, dose: 400.0 mg/kg/injection, schedule: Q04DX003 (oral), vehicle: saline 93 % of control | endpoint: mean survival time, dose: 600.0 mg/kg/injection, schedule: Q01DX001 (ip), vehicle: Klucel (hydroxypropylcellulose) (HPC) 103 % of control | endpoint: mean survival time, dose: 600.0 mg/kg/injection, schedule: Q01DX001 (sc), vehicle: saline 109 % of control and 110 % of control | endpoint: mean survival time, dose: 960.0 mg/kg/injection, schedule: Q01DX001 (ip), vehicle: other 110 % of control | endpoint: median survival time, dose: 2.0 mg/kg/injection, schedule: Q03HX008 (oral), vehicle: other 100 % of control | endpoint: median survival time, dose: 4.0 mg/kg/injection, schedule: Q01DX009 (oral), vehicle: other 111 % of control | endpoint: median survival time, dose: 32.0 mg/kg/injection, schedule: Q01DX009 (oral), vehicle: other 100 % of control | endpoint: median survival time, dose: 32.0 mg/kg/injection, schedule: Q01DX009 (sc), vehicle: water 100 % of control | endpoint: median survival time, dose: 64.0 mg/kg/injection, schedule: Q01DX009 (oral), vehicle: other 94 % of control | endpoint: median survival time, dose: 256.0 mg/kg/injection, schedule: Q01DX001 (sc), vehicle: water 100 % of control | endpoint: median survival time, dose: 400.0 mg/kg/injection, schedule: Q04DX003 (ip), vehicle: saline with Tween-80 111 % of control
